≈ marks a conversion by molar mass, not a printed value. Calls of active or inactive are those of the source. The calls are words filed in the database; no cut-off is given here.
Tests used:
Escherichia coli [1] = experiment: Induction of outer membrane permeabilization in Escherichia coli ATCC 25922 measured up to 12 mins by NPN-dye based assay; format: organism-based
Escherichia coli [2] = experiment: Antibacterial activity against Escherichia coli ATCC 43837 after 18 hrs by CLSI based broth microdilution method; format: functional; details: ATCC 43837, 18 h
Erythrocyte = experiment: Hemolytic activity in human RBC measured after 1 hr by microplate reader analysis; format: ADME, cell-based
Staphylococcus aureus [3] = experiment: Antibacterial activity against methicillin-resistant Staphylococcus aureus 936 after 18 hrs by CLSI based broth microdilution method; format: functional; details: Staphylococcus aureus, 936, 18 h
Escherichia coli [4] = experiment: Potentiation of polymyxin B-induced antibacterial activity against Escherichia coli ATCC 25922 assessed as FICI after 18 hrs by checker board assay; format: functional
Klebsiella pneumoniae [5] = experiment: Potentiation of rifampicin-induced antibacterial activity against Klebsiella pneumoniae ATCC 700603 assessed as FICI after 18 hrs by checker board assay; format: functional
Escherichia coli [6] = experiment: Induction of membrane disruption in Escherichia coli ATCC 25922 assessed as rough membrane surface at 4 times of MIC after 2 hrs by SEM analysis; format: functional, organism-based
Escherichia coli [7] = experiment: Ratio of antibacterial activity against Escherichia coli ATCC 25922 in presence of FeCl3 to antibacterial activity against Escherichia coli ATCC 25922; format: functional
[8] = Selectivity index, ratio of MHC10 for human RBC to geometric mean of peptide MIC for gram negative bacteria; format: toxicity; details: human red blood cells, read-out: Selectivity Index
Staphylococcus aureus [9] = experiment: Ratio of antibacterial activity against Staphylococcus aureus ATCC 25923 in presence of MgCl2 to antibacterial activity against Staphylococcus aureus ATCC 25923; format: functional
Escherichia coli [10] = experiment: Induction of inner membrane permeabilization in Escherichia coli ATCC 43837 assessed as increase in ONPG release at 4 times of MIC by ONPG dye based assay; format: organism-based
Staphylococcus aureus [11] = experiment: Ratio of antibacterial activity against Staphylococcus aureus ATCC 25923 in presence of NaCl to antibacterial activity against Staphylococcus aureus ATCC 25923; format: functional
Escherichia coli [12] = experiment: Ratio of MIC for Escherichia coli ATCC 25922 preincubated for 1 hr in presence of 10% mouse serum and measured after 18 hrs to MIC for antibacterial activity against Escherichia coli ATCC 25922 after 18 hrs; format: functional
Staphylococcus aureus [13] = experiment: Ratio of antibacterial activity against Staphylococcus aureus ATCC 25923 in presence of KCl to antibacterial activity against Staphylococcus aureus ATCC 25923; format: functional
Klebsiella pneumoniae [14] = experiment: Potentiation of polymyxin B-induced antibacterial activity against Klebsiella pneumoniae ATCC 700603 assessed as FICI after 18 hrs by checker board assay; format: functional
Escherichia coli [15] = experiment: Induction of ROS generation in Escherichia coli ATCC 25922; format: functional, organism-based
Bacillus subtilis = experiment: Antibacterial activity against Bacillus subtilis ATCC 23857 after 18 hrs by CLSI based broth microdilution method; format: functional; details: ATCC 23857, 18 h
Escherichia coli [16] = experiment: Antibacterial activity against Escherichia coli ATCC 25922 after 18 hrs by CLSI based broth microdilution method; format: functional; details: ATCC 25922, 18 h
Klebsiella pneumoniae [17] = experiment: Antibacterial activity against Klebsiella pneumoniae ATCC 700603 after 18 hrs by CLSI based broth microdilution method; format: functional; details: Klebsiella pneumoniae, 700603, 18 h
Pseudomonas aeruginosa [18] = experiment: Potentiation of rifampicin-induced antibacterial activity against Pseudomonas aeruginosa ATCC 27853 assessed as FICI after 18 hrs by checker board assay; format: functional
Escherichia coli [19] = experiment: Potentiation of rifampicin-induced antibacterial activity against Escherichia coli ATCC 25922 assessed as FICI after 18 hrs by checker board assay; format: functional
Pseudomonas aeruginosa [20] = experiment: Antibacterial activity against Pseudomonas aeruginosa ATCC 27853 after 18 hrs by CLSI based broth microdilution method; format: functional; details: ATCC 27853, 18 h
Escherichia coli [21] = experiment: Antimicrobial activity against Escherichia coli ATCC 25922 at 1 mM preincubated for 6 hrs in presence of 2000 ug/ml trypsin and measured after 18 hrs by microplate reader analysis; format: functional, organism-based
Escherichia coli [22] = experiment: Induction of membrane disruption in Escherichia coli ATCC 25922 assessed as corrugated membrane surface at 4 times of MIC after 2 hrs by SEM analysis; format: functional, organism-based
Escherichia coli [23] = experiment: Ratio of antibacterial activity against Escherichia coli ATCC 25922 in presence of MgCl2 to antibacterial activity against Escherichia coli ATCC 25922; format: functional
Staphylococcus aureus [24] = experiment: Antibacterial activity against Staphylococcus aureus ATCC 25923 after 18 hrs by CLSI based broth microdilution method; format: functional; details: ATCC 25923, 18 h
Escherichia coli [25] = experiment: Antibacterial activity against Escherichia coli ATCC 25922 at 0.5 times MIC incubated for 18 hrs measured for 15 passages by CLSI based broth microdilution method; format: functional, organism-based
Escherichia coli [26] = experiment: Antibiofilm activity against Escherichia coli ATCC 25922 at 2 times MIC after 24 hrs by crystal violet staining based assay; format: functional, organism-based
Escherichia coli [27] = experiment: Disruption of membrane integrity in Escherichia coli ATCC 25922 assessed as membrane damage by measuring PI fluorescence at 2 times of MIC incubated for 1 hr by PI dye based flow cytometric analysis (reference value: 1.35%); format: functional
Pseudomonas aeruginosa [28] = experiment: Potentiation of polymyxin B-induced antibacterial activity against Pseudomonas aeruginosa ATCC 27853 assessed as FICI after 18 hrs by checker board assay; format: functional
Escherichia coli [29] = experiment: Induction of membrane disruption in Escherichia coli ATCC 25922 assessed as fracture in membrane at 4 times of MIC after 2 hrs by SEM analysis; format: functional, organism-based
DNA = experiment: Binding affinity to Escherichia coli ATCC 25922 genomic DNA after 30 mins by agarose gel electrophoresis; format: nucleic-acid assay
Escherichia coli [30] = experiment: Disruption of membrane integrity in Escherichia coli ATCC 25922 assessed as membrane damage by measuring PI fluorescence at 4 times of MIC incubated for 1 hr by PI dye based flow cytometric analysis (reference value: 1.35%); format: functional
Pseudomonas aeruginosa [31] = experiment: Antibiofilm activity against Pseudomonas aeruginosa ATCC 27853 at 0.25 to 2 times of MIC after 24 hrs by crystal violet staining based assay; format: functional, organism-based
Escherichia coli [32] = experiment: Induction of inner membrane permeabilization in Escherichia coli ATCC 43837 assessed as increase in ONPG release at 1 to 2 times of MIC by ONPG dye based assay; format: organism-based
Escherichia coli [33] = experiment: Ratio of antibacterial activity against Escherichia coli ATCC 25922 in presence of NaCl to antibacterial activity against Escherichia coli ATCC 25922; format: functional
Staphylococcus aureus [34] = experiment: Antibiofilm activity against Staphylococcus aureus ATCC 25923 after 24 hrs by crystal violet staining based assay; format: functional, organism-based
Escherichia coli [35] = experiment: Induction of membrane disruption in Escherichia coli ATCC 25922 assessed as degeneration in membrane at 4 times of MIC after 2 hrs by SEM analysis; format: functional, organism-based
Escherichia coli [36] = experiment: Antibiofilm activity against Escherichia coli ATCC 25922 after 24 hrs by crystal violet staining based assay; format: functional, organism-based
Staphylococcus aureus [37] = experiment: Ratio of antibacterial activity against Staphylococcus aureus ATCC 25923 in presence of FeCl3 to antibacterial activity against Staphylococcus aureus ATCC 25923; format: functional

| SMILES | Activity (Escherichia coli [1]) | MIC (Escherichia coli [2]) [µM] | MHC10 (Erythrocyte) [µM] | MIC (Staphylococcus aureus [3]) [µM] | fractional inhibitory concentration index (FICI) (Escherichia coli [4]) | fractional inhibitory concentration index (FICI) (Klebsiella pneumoniae [5]) | Activity (Escherichia coli [6]) | Ratio (Escherichia coli [7]) | selectivity ratio [8] | Ratio (Staphylococcus aureus [9]) | Activity (Escherichia coli [10]) | Ratio (Staphylococcus aureus [11]) | Ratio (Escherichia coli [12]) | Ratio (Staphylococcus aureus [13]) | fractional inhibitory concentration index (FICI) (Klebsiella pneumoniae [14]) | Activity (Escherichia coli [15]) | MIC (Bacillus subtilis) [µM] | MIC (Escherichia coli [16]) [µM] | MIC (Klebsiella pneumoniae [17]) [µM] | fractional inhibitory concentration index (FICI) (Pseudomonas aeruginosa [18]) | other results |
| --- | --- | --- | --- | --- | --- | --- | --- | --- | --- | --- | --- | --- | --- | --- | --- | --- | --- | --- | --- | --- | --- |
| CCCCCC(=O)NC(Cc1cn(CCCC[C@H](NC(C)=O)C(=O)NCC(=O)N[C@@H](CC(C)C)C(=O)N[C@@H](CC(C)C)C(=O)N[C@H](CCCCN)C(=O)N[C@@H](CCCNC(=N)N)C(=O)N[C@H](C(=O)N[C@H](CCCCN)C(=O)N[C@H](C(=O)N[C@@H](CC(C)C)C(=O)N[C@@H](CC(C)C)C(N)=O)[C@@H](C)O)[C@@H](C)CC)nn1)C(=O)NCC(=O)N[C@@H](CC(C)C)C(=O)N[C@@H](CC(C)C)C(=O)N[C@H](CCCCN)C(=O)N[C@@H](CCCNC(=N)N)C(=O)N[C@H](C(=O)N[C@H](CCCCN)C(=O)N[C@H](C(=O)N[C@@H](CC(C)C)C(=O)N[C@@H](CC(C)C)C(N)=O)[C@@H](C)O)[C@@H](C)CC (stereo not given in full) | Dose-dependent effect | 8 (≈ 21.6 µg/mL) | > 256 | 64 (≈ 173 µg/mL) | 0.375 | 0.5625 | Active | 2 - 4 | 51.2 | 2 - 4 | Active | 2 - 4 | 1 | 2 - 4 | 0.1875 | inactive | 4 (≈ 10.8 µg/mL) | 8 (≈ 21.6 µg/mL) | 16 (≈ 43.1 µg/mL) | 0.5 | fractional inhibitory concentration index (FICI) (Escherichia coli [19]): 0.5625; MIC (Pseudomonas aeruginosa [20]): 8 µM (≈ 21.6 µg/mL); Activity (Escherichia coli [21]): Active; Activity (Escherichia coli [22]): Active; Ratio (Escherichia coli [23]): 2 - 4; MIC (Staphylococcus aureus [24]): 64 µM (≈ 173 µg/mL); Activity (Escherichia coli [25]): Active; inhibition (Escherichia coli [26]): Active; Activity (Escherichia coli [27]): 22.4%; fractional inhibitory concentration index (FICI) (Pseudomonas aeruginosa [28]): 0.3125; Activity (Escherichia coli [29]): Active; Activity (DNA): Dose-dependent effect; Activity (Escherichia coli [30]): 38.5%; inhibition (Pseudomonas aeruginosa [31]): Active; Activity (Escherichia coli [32]): Active; Ratio (Escherichia coli [33]): 2 - 4; inhibition (Staphylococcus aureus [34]): Dose-dependent effect; Activity (Escherichia coli [35]): Active; inhibition (Escherichia coli [36]): Dose-dependent effect; Ratio (Staphylococcus aureus [37]): 2 - 4 |
| CCCCCCCCCCCC(=O)NC(Cc1cn(CCCC[C@H](NC(C)=O)C(=O)NCC(=O)N[C@@H](CC(C)C)C(=O)N[C@@H](CC(C)C)C(=O)N[C@H](CCCCN)C(=O)N[C@@H](CCCNC(=N)N)C(=O)N[C@H](C(=O)N[C@H](CCCCN)C(=O)N[C@H](C(=O)N[C@@H](CC(C)C)C(=O)N[C@@H](CC(C)C)C(N)=O)[C@@H](C)O)[C@@H](C)CC)nn1)C(=O)NCC(=O)N[C@@H](CC(C)C)C(=O)N[C@@H](CC(C)C)C(=O)N[C@H](CCCCN)C(=O)N[C@@H](CCCNC(=N)N)C(=O)N[C@H](C(=O)N[C@H](CCCCN)C(=O)N[C@H](C(=O)N[C@@H](CC(C)C)C(=O)N[C@@H](CC(C)C)C(N)=O)[C@@H](C)O)[C@@H](C)CC (stereo not given in full) | Dose-dependent effect | 8 (≈ 22.2 µg/mL) | 16 | 16 (≈ 44.5 µg/mL) | 0.3125 | 0.5 | Active | 2 - 4 | 2 | 2 - 4 | Active | 2 - 4 | 2 | 2 - 4 | 0.3125 | inactive | 2 (≈ 5.56 µg/mL) | 8 (≈ 22.2 µg/mL) | 8 (≈ 22.2 µg/mL) | 0.3125 | fractional inhibitory concentration index (FICI) (Escherichia coli [19]): 0.5625; MIC (Pseudomonas aeruginosa [20]): 8 µM (≈ 22.2 µg/mL); Activity (Escherichia coli [21]): Active; Activity (Escherichia coli [22]): Active; Ratio (Escherichia coli [23]): 2 - 4; MIC (Staphylococcus aureus [24]): 8 µM (≈ 22.2 µg/mL); Activity (Escherichia coli [25]): Active; inhibition (Escherichia coli [26]): Active; Activity (Escherichia coli [27]): 60.7%; fractional inhibitory concentration index (FICI) (Pseudomonas aeruginosa [28]): 0.1875; Activity (Escherichia coli [29]): Active; Activity (DNA): Dose-dependent effect; Activity (Escherichia coli [30]): 88.9%; inhibition (Pseudomonas aeruginosa [31]): Active; Activity (Escherichia coli [32]): Active; Ratio (Escherichia coli [33]): 2 - 4; inhibition (Staphylococcus aureus [34]): Dose-dependent effect; Activity (Escherichia coli [35]): Active; inhibition (Escherichia coli [36]): Dose-dependent effect; Ratio (Staphylococcus aureus [37]): 2 - 4 |

Reference: ChEMBL document CHEMBL4359906, “Design and synthesis of new N-terminal fatty acid modified-antimicrobial peptide analogues with potent in vitro biological activity” (Eur J Med Chem, 2019)
